In US20240425464A1, “Substituted Monohydrazides as Potent Antifungal Agents” (University of Kentucky Research Foundation, priority 2023, published 2024):
In brackets after ≈: the same amount, converted by molar mass. Read-outs that look alike come from different tables or passages of the source.

How the values were obtained:
[1] = system: HepG2 cells; test: In vitro cytotoxicity assay (resazurin); type: cell-based; settings: for toxicity: up to 31.3 j·tg mL^−1, 24 h; for cell survival: at 31.3 j·tg mL^−1
Procedure: The antifungal agent amphotericin B (AmB) was purchased from VWR (Radnor PA, USA). AmB was dissolved in DMSO at a final concentration of 5 mg/mL and was stored at −20° C., protected from light. […] For cytotoxicity assays, HepG2 and the mouse macrophage cell line J774A.1 were obtained from University of Kentucky. […] Mammalian cells were grown in Dulbecco's Modified Eagle's Medium (DMEM) (from VWR) with 10% fetal bovine serum (FBS) (from VWR) and 1% Pen/Strep (from ATCC). Cell lines were cultured at 37° C. with 5% CO2 and passaged by trypsinization with 0.05% trypsin: 0.53 mM EDTA (from Sigma-Aldrich).
Cytotoxicity assays were performed as previously described with slight modifications.^3 HepG2, J774A.1, and HEK-293 cells were first thawed from frozen stocks kept in liquid N2 and grown in Dulbecco's modified Eagles's medium (DMEM) containing 10% fetal bovine serum (FBS) and 1% Pen/Strep. […] The 96-well plates were incubated 37° C. with 5% CO2 overnight. […] The medium in the 96-well plates containing the cells was aspirated and replaced by fresh DMEM (100 μL). […] The 96-well plates were further incubated for 24 h at 37° C. with 5% CO2 overnight. To evaluate cell survival, each well was treated with 10 μL (2 mM) of resazurin sodium salt (Sigma-Aldrich, St. Louis, MO, USA) and was incubated for another 6 h. Metabolically active cells can convert resazurin to the highly fluorescent dye, resorufin, and be detected at ?560 excitation and λ590 emission using a SpectraMax M5 plate reader (Molecular Devices, San Jose, CA, USA). Triton X-100® (1%, v/v) was used as positive control; the negative control consisted of cells treated with the delivery vehicle (0.05% DMSO), and the blank control was only the culture medium with 0.05% DMSO without cells. The experiments were performed in quadruplicate.

[2] = system: ten other fungal strains (AR Bank #391-400); test: MIC determination, summary over ten additional fungal strains; type: cell-based; settings: read-out: MIC range
Procedure: (§1) The antifungal agent amphotericin B (AmB) was purchased from VWR (Radnor PA, USA). AmB was dissolved in DMSO at a final concentration of 5 mg/mL and was stored at −20° C., protected from light. Candida albicans American Type Culture Collection (ATCC) 10231 (strain A), C. albicans ATCC 64124 (B), and C. albicans ATCC MYA-2876 (C) were obtained from Utah State University. C. albicans ATCC 90819 (D), C. albicans ATCC MYA-2310 (E), C. albicans ATCC MYA-1237 (F), C. albicans ATCC MYA-1003 (G), Candida glabrata ATCC 2001 (H), Candida krusei ATCC 6258 (I), Candida parapsilosis ATCC 22019 (J), Cryptococcus neoformans ATCC MYA-895 (M), Aspergillus terreus ATCC MYA-3633 (N), and Aspergillus flavus ATCC MYA-3631 (0) were obtained from the American Type Culture Collection (ATCC; Manassas, VA, USA). Aspergillus nidulans ATCC 38163 (P) was obtained from University of Kentucky. Clinically derived Aspergillus fumigatus NRRL 163 (Q), A. fumigatus NRRL 5109 (R), and A. fumigatus NRRL 6113 (S) were obtained from Northern Regional Research Laboratory (NRRL). Candida auris 384 (K), C. auris 390 (L), and fungal strains 381-400 (including 10 C. auris (AR Bank #381-390), 3 Candida duobushaemulonii (AR Bank #391, AR Bank #392, and AR Bank #394), 2 Candida haemulonii (AR Bank #393 and AR Bank #395), 1 Kodameae ohmeri (AR Bank #396), 1 C. krusei (AR Bank #397), 1 Candida lusitaniae (AR Bank #398), and 2 Saccharomyces cerevisiae strains (AR Bank #399 and AR Bank #400)) were part of a larger fungal library from the AR Bank maintained by the Centers for Disease Control and Prevention (CDC; Atlanta, GA, USA). Filamentous fungi and yeasts were cultivated at 35° C. in RPMI 1640 medium (with L-glutamine, without sodium bicarbonate, Sigma-Aldrich, St. Louis, MO) buffered to a pH of 7.0 with 0.165 M morpholinepropanesulfonic acid (MOPS) buffer (Sigma-Aldrich). For cytotoxicity assays, HepG2 and the mouse macrophage cell line J774A.1 were obtained from University of Kentucky. The human embryonic kidney cell line, HEK-293, was bought from the ATCC. Mammalian cells were grown in Dulbecco's Modified Eagle's Medium (DMEM) (from VWR) with 10% fetal bovine serum (FBS) (from VWR) and 1% Pen/Strep (from ATCC). Cell lines were cultured at 37° C. with 5% CO2 and passaged by trypsinization with 0.05% trypsin: 0.53 mM EDTA (from Sigma-Aldrich).
(§2) From the actively growing yeast culture, 100 µL were then transferred to 900 μL of RPMI 1640 medium and re-adjusted to achieve OD600 of 0.12 (˜1×10^6 CFU/mL). The cell suspension was further diluted to achieve 1:100 in RPMI 1640 medium.

[3] = system: Saccharomyces cerevisiae AR Bank #400; test: MIC determination by in vitro antifungal assay; type: cell-based
Procedure: as §1, §2

[4] = system: C. albicans ATCC 10231 (strain A); test: Time-kill assay; type: cell-based, Candida albicans; settings: at 4×MIC; CFU at 0-24 h
Procedure: Compounds were then added to the fungal cells. […] Experiments were performed in duplicate.

## O=C(NNc1ccc(F)cc1F)c1cnccn1 [Compound 9g]
[1]
  toxicity: no toxicity
[2]
  MIC: 0.06 to 7.8 µg/mL (≈ 0.24 to 31.2 µM)

## O=C(NNc1ccc(F)cc1)c1ccccn1 [Compound 2d]
[1]
  toxicity: no toxicity
[2]
  MIC: 0.06 to 7.8 µg/mL (≈ 0.259 to 33.7 µM)

## O=C(NNc1ccc(Cl)cc1)c1cnccn1 [Compound 9e]
[3]
  MIC: 3.9 μg/mL^−1

## O=C(NNc1cccc(Cl)c1)c1ccccn1 [Compound 2b]
[1]
  toxicity: no toxicity
[4]
  fungistatic or fungicidal behavior in time-kill assay: fungistatic

## O=C(NNc1cccc(F)c1)c1ccccn1 [Compound 2a]
[1]
  toxicity: no toxicity

## O=C(NNc1cc(F)cc(F)c1)c1ccccn1 [Compound 2i]
[1]
  cell survival: 89%
[2]
  MIC: 0.06 to 1.95 µg/mL (≈ 0.241 to 7.82 µM)

## COc1ccc(NNC(=O)c2cnccn2)cc1 [Compound 9f]
[1]
  toxicity: no toxicity
[2]
  MIC: 0.06 to 1.95 µg/mL (≈ 0.246 to 7.98 µM)

## COc1cccc(NNC(=O)c2ccccn2)c1 [Compound 2c]
[3]
  MIC: 7.8 μg/mL^−1

## COc1ccc(NNC(=O)c2ccccn2)cc1 [Compound 2f]
[2]
  MIC: 0.06 to 1.95 µg/mL (≈ 0.247 to 8.02 µM)

## O=C(NNc1cc(Cl)cc(Cl)c1)c1ccccn1 [Compound 2j]
[3]; read-out: MIC
  MIC: 3.9 µg/mL (≈ 13.8 µM)
[2]
  MIC: 0.06 to 7.8 µg/mL (≈ 0.213 to 27.6 µM)

## O=C(NNc1cccc(F)c1)c1cnccn1 [Compound 9a]
[1]
  cell survival: 94%

## COc1cccc(NNC(=O)c2cnccn2)c1 [Compound 9c]
[3]; read-out: MIC
  MIC: 3.9 µg/mL (≈ 16 µM)
[1]
  toxicity: no toxicity
[2]
  MIC: 0.06 to 7.8 µg/mL (≈ 0.246 to 31.9 µM)

## O=C(NNc1cccc(Cl)c1)c1cnccn1 [Compound 9b]
[1]
  toxicity: no toxicity
[2]
  MIC: 0.06 to 1.95 µg/mL (≈ 0.241 to 7.84 µM)

## O=C(NNc1ccc(F)cc1F)c1ccccn1 [Compound 2g]
[1]
  toxicity: no toxicity
[2]
  MIC: 0.06 to 7.8 µg/mL (≈ 0.241 to 31.3 µM)

## O=C(NNc1cc(F)ccc1F)c1ccccn1 [Compound 2h]
[2]
  MIC: 0.06 to 1.95 µg/mL (≈ 0.241 to 7.82 µM)
